Reference: patent US20240000767A1, “COMBINATION OF AN ALPHA2-ADRENOCEPTOR SUBTYPE C (ALPHA-2C) ANTAGONIST WITH A TASK1/3 CHANNEL BLOCKER FOR THE TREATMENT OF SLEEP APNEA” (Bayer Aktiengesellschaft, priority 2020, published 2024)

Experiments:
human ADRA2C receptor [1] = target: T1, human ADRA2C receptor (Homo sapiens (Human), UniProt P18825); experiment: In vitro radioligand binding studies ([3H] rauwolscine competition) at the human adrenoreceptor ADRA2C; details: for IC50: 0.5 nM [3H] rauwolscine, homogenates of CHO-K1 cells expressing human ADRA2C, 1 h at 4° C., read-out: hARα2C IC50; for Ki: calculated from IC50 and Kd with the Cheng Prusoff equation, read-out: hARα2C Ki
T1 sequence (P18825 whole entry): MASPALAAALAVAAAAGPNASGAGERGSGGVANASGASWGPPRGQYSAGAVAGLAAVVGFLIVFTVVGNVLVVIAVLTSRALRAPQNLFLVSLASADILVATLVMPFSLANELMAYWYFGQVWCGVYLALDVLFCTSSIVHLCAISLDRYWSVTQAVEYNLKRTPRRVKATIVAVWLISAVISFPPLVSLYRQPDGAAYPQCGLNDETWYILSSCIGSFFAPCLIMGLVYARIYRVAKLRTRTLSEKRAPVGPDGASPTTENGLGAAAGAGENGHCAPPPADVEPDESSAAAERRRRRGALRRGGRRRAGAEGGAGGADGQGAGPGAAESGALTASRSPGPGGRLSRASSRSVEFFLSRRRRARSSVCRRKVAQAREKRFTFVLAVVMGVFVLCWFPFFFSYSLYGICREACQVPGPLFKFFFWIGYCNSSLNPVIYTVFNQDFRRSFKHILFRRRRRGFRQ
Procedure: B-1 In Vitro Radioligand Binding Studies for Determination of the Dissociation Constants K1 at the Human Adrenoreceptor ADRA2C (Eurofins Panlabs Discovery Services, Taiwan, Ltd)
A competition assay based on [^3H] rauwolscine as radioliganden was used to determine the binding affinity of the test substances at the human ADRA2C receptor.
To configure the competition assay, the equilibrium dissociation constant Kd of the radioligand [^3H] rauwolscine was determined in a saturation experiment. To this end, homogenates of CHO-K1 cells recombinantly expressing the human ADRA2C receptor were incubated with increasing concentrations of the radiotracers for 1 h at 4° C. in binding buffer (50 mM Tris-HCl, 1 mM EDTA, pH 7.4). Unspecific binding was determined by addition of an excess of the not radioactively labelled ligand prazosin (10 μM). The radioactivity was determined in a scintiation counter.
The competition experiments were carried out in the presence of 0.5 nM [^3H] rauwolscine and increasing concentrations of the test substances to be characterized under the conditions described above.
From the IC50 value measured in the competition experiment and the […] from the saturation experiment, the equilibrium constant Ki of the inhibitor, which describes the affinity of the test substances to the receptor, was calculated using the Cheng Prusoff equation [Cheng Y, Prusoff WH. Relationship between the inhibition constant (Ki) and the concentration of inhibitor which causes 50 percent inhibition (I50) of an enzymatic reaction. […] PMID 4202581 PMID: 4202581].

human ADRA2C receptor [2] = target: T1, human ADRA2C receptor; experiment: In vitro activity assay to determine the inhibition of recombinant ADRA2C (CHO-K1 cells, aequorin bioluminescence); assay type: cell-based; details: inhibition of noradrenaline-induced bioluminescence signal; some mean values from multiple determinations; read-out: ARα2C IC50
Summary of the method: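 IC50 is the concentration halving the agonist (noradrenaline)-evoked rise in aequorin luminescence, fitted by 4-parameter Hill function. Read in stable Gαq/aequorin CHO-K1 cells expressing recombinant human ADRA2C.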

[3] = test system: anaesthetized, spontaneously breathing pigs; experiment: Pig model of obstructive sleep apnea (OSA): upper airway collapsibility under negative pressure; assay type: in vivo, German Landrace pigs; details: for Percent pigs without collaps −50 cm H2O / Percent pigs without collaps −100 cm H2O / Percent pigs without collaps −150 cm H2O: 0.01 mg/kg intraduodenal at 0 min; for upper airway collapsibility / time points at which upper airway collapsibility was inhibited at all negative pressures of −50, −100 and −150 cm H2O in all pigs: 0.01 mg/kg intraduodenal, alone
From the text: B-3 Animal Model of Obstructive Sleep Apnoea in the Pig
Using negative pressure, it is possible to induce collapse and thus obstruction of the upper respiratory tract in anesthetized, spontaneously breathing pigs [Wirth et al., Sleep 36, 699-708 (2013)].
German Landrace pigs are used for the model. The pigs are anesthetized and tracheotomized. One cannula each is inserted into the rostral and the caudal part of the trachea. Using a T connector, the rostral cannula is connected on the one hand to a device generating negative pressures and on the other hand to the caudal cannula. Using a T connector, the caudal cannula is connected to the rostral cannula and to a tube which allows spontaneous breathing circumventing the upper respiratory tract. By appropriate closing and opening of the tubes it is thus possible for the pig to change from normal nasal breathing to breathing via the caudal cannula during the time when the upper respiratory tract is isolated and connected to the device for generating negative pressures. The muscle activity of the musculus genioglossus is recorded by electromyogram (EMG).
(§1) At certain points in time, the collapsibility of the upper respiratory tract is tested by having the pig breathe via the caudal cannula and applying negative pressures of −50, −100 and −150 cm water head (cmH2O) to the upper respiratory tract. This causes the upper respiratory tract to collapse, which manifests itself in an interruption of the airflow and a pressure drop in the tube system. This test is conducted prior to the administration of the test substance and at certain intervals after the administration of the test substance. An appropriately effective test substance can prevent this collapse of the respiratory tract in the inspiratory phase.
Administration of the test substance can be intranasal, intravenous, subcutaneous, intraperitoneal, intraduodenal or intragastral.
The therapeutic potential of the combination of an α2-Adrenoceptor subtype C (alpha-2C) antagonists with a TASK⅓ channel blocker according to the present invention in sleep apnea can be assessed preclinically in a pig model of obstructive sleep apnea (OSA).
Using negative pressure, it is possible to induce collapse and thus obstruction of the upper respiratory tract in anaesthetized, spontaneously breathing pigs (Wirth K. J. et al., Sleep 36(5) (2013) pp. 699-708).
German Landrace pigs are used for the model. The pigs are anaesthetized and tracheotomized. Two tracheal cannulas are inserted into the trachea, one into the rostral part and the other into the caudal part of the trachea. Using a connection piece, the rostral cannula is connected to a tube to the negative pressure device and to the distal tracheal cannula. The distal tracheal cannula is additionally connected to a tube with an open end to atmosphere via a connection piece that served for free tracheal breathing, circumventing the upper airway. By appropriate opening and clamping of those tubes breathing can be switched from nasal breathing to breathing through the caudal tracheal cannula, circumventing the upper airway, and the (isolated) upper airway can be connected to the negative pressure device, causing airflow in the inspiratory direction.
as §1, with “(cm H2O)” for “(cmH2O)”

COCC1CCCN(C2CCN(c3ncc(C(=O)NCc4ncc(F)cc4F)s3)CC2)C1 (single isomer, unassigned) [Example 100, ent-N-[(3,5-Difluoropyridin-2-yl)methyl]-2-[3-(methoxymethyl)[1,4′-bipiperidin]-1′-yl]-1,3-thiazole-5-carboxamide]
IC50 (human ADRA2C receptor [1]): 0.005 µM
Ki (human ADRA2C receptor [1]): 0.002 µM
IC50 (human ADRA2C receptor [2]): 0.0029 µM

C[C@@H]1CCCN(C2CCN(c3ncc(C(=O)NCc4ncc(F)cc4F)s3)CC2)C1 [Example 1, N-[(3,5-Difluoropyridin-2-yl)methyl]-2-[(3R)-3-methyl[1,4′-bipiperidin]-1′-yl]-1,3-thiazole-5-carboxamide]
IC50 (human ADRA2C receptor [1]): 0.054 µM
Ki (human ADRA2C receptor [1]): 0.024 µM
IC50 (human ADRA2C receptor [2]): 0.121 µM

C[C@@H]1CCCN(C2CCN(c3ncc(C(=O)NCc4ncc(F)cc4F)s3)CC2)C1 [N-[(3,5-difluoropyridin-2-yl)methyl]-2-[(3R)-3-methyl[1,4′-bipiperidin]-1′-yl]-1,3-thiazole-5-carboxamide]
Percent pigs without collaps −50 cm H2O ([3]; time 0 min): 0%
Percent pigs without collaps −100 cm H2O ([3]; time 0 min): 0%
Percent pigs without collaps −150 cm H2O ([3]; time 0 min): 0%
Percent pigs without collaps −50 cm H2O ([3]; time 30 min): 0%
Percent pigs without collaps −100 cm H2O ([3]; time 30 min): 0%
Percent pigs without collaps −150 cm H2O ([3]; time 30 min): 0%
Percent pigs without collaps −50 cm H2O ([3]; time 60 min): 0%
Percent pigs without collaps −100 cm H2O ([3]; time 60 min): 0%
Percent pigs without collaps −150 cm H2O ([3]; time 60 min): 0%
Percent pigs without collaps −50 cm H2O ([3]; time 90 min): 33%
Percent pigs without collaps −100 cm H2O ([3]; time 90 min): 33%
Percent pigs without collaps −150 cm H2O ([3]; time 90 min): 33%
Percent pigs without collaps −50 cm H2O ([3]; time 120 min): 100%
Percent pigs without collaps −100 cm H2O ([3]; time 120 min): 100%
Percent pigs without collaps −150 cm H2O ([3]; time 120 min): 67%
Percent pigs without collaps −50 cm H2O ([3]; time 150 min): 100%
Percent pigs without collaps −100 cm H2O ([3]; time 150 min): 100%
Percent pigs without collaps −150 cm H2O ([3]; time 150 min): 100%
Percent pigs without collaps −50 cm H2O ([3]; time 180 min): 100%
Percent pigs without collaps −100 cm H2O ([3]; time 180 min): 100%
Percent pigs without collaps −150 cm H2O ([3]; time 180 min): 100%
Percent pigs without collaps −50 cm H2O ([3]; time 210 min): 67%
Percent pigs without collaps −100 cm H2O ([3]; time 210 min): 33%
Percent pigs without collaps −150 cm H2O ([3]; time 210 min): 0%
Percent pigs without collaps −50 cm H2O ([3]; time 230 min): 0%
Percent pigs without collaps −100 cm H2O ([3]; time 230 min): 0%
Percent pigs without collaps −150 cm H2O ([3]; time 230 min): 0%
upper airway collapsibility ([3]; 230 min after administration, all pigs): induced at all negative pressures
time points at which upper airway collapsibility was inhibited at all negative pressures of −50, −100 and −150 cm H2O in all pigs ([3]; first set): only at time point 150 and 180 min
time points at which upper airway collapsibility was inhibited at all negative pressures of −50, −100 and −150 cm H2O in all pigs ([3]; second set): at no time point
Percent pigs without collaps −50 cm H2O ([3]; second set, time 0 min): 0%
Percent pigs without collaps −100 cm H2O ([3]; second set, time 0 min): 0%
Percent pigs without collaps −150 cm H2O ([3]; second set, time 0 min): 0%
Percent pigs without collaps −50 cm H2O ([3]; second set, time 30 min): 0%
Percent pigs without collaps −100 cm H2O ([3]; second set, time 30 min): 0%
Percent pigs without collaps −150 cm H2O ([3]; second set, time 30 min): 0%
Percent pigs without collaps −50 cm H2O ([3]; second set, time 60 min): 50%
Percent pigs without collaps −100 cm H2O ([3]; second set, time 60 min): 0%
Percent pigs without collaps −150 cm H2O ([3]; second set, time 60 min): 0%
Percent pigs without collaps −50 cm H2O ([3]; second set, time 90 min): 100%
Percent pigs without collaps −100 cm H2O ([3]; second set, time 90 min): 50%
Percent pigs without collaps −150 cm H2O ([3]; second set, time 90 min): 50%
Percent pigs without collaps −50 cm H2O ([3]; second set, time 120 min): 100%
Percent pigs without collaps −100 cm H2O ([3]; second set, time 120 min): 100%
Percent pigs without collaps −150 cm H2O ([3]; second set, time 120 min): 0%
Percent pigs without collaps −50 cm H2O ([3]; second set, time 150 min): 50%
Percent pigs without collaps −100 cm H2O ([3]; second set, time 150 min): 0%
Percent pigs without collaps −150 cm H2O ([3]; second set, time 150 min): 0%
Percent pigs without collaps −50 cm H2O ([3]; second set, time 180 min): 0%
Percent pigs without collaps −100 cm H2O ([3]; second set, time 180 min): 0%
Percent pigs without collaps −150 cm H2O ([3]; second set, time 180 min): 0%
upper airway collapsibility ([3]; second set, 90 min after administration): only inhibited at negative pressures of −50 cm head
upper airway collapsibility ([3]; second set, 120 min after administration): only inhibited at negative pressures of −50 and −100 cm head
upper airway collapsibility ([3]; second set, 180 min after administration, all pigs): induced at all negative pressures
